According to patent publication US20240191198A1, “CELL-CULTURED FOOD PRODUCTS AND RELATED CELLS, COMPOSITIONS, METHODS AND SYSTEMS” (BlueNalu, Inc., priority 2021, published 2024):
“Also recorded” adds a separate entry of the source.

Columns and labels:
[1] = system: Yellowtail myoblasts; assay: Loading of single fatty acids into yellowtail myoblasts; format: cell-based, Seriola lalandi; settings: for lipid accumulation (BODIPY): individual BSA-conjugated fatty acid 25, 50, 75 or 100 μg/ml, 4% serum
Procedure: Cells were seeded onto tissue culture polystyrene at a density of 6000 cells per cm^2. Cells were cultured in the presence of control media without fatty acids or test media with individual fatty acids conjugated to BSA at 25, 50, 75, or 100 μg/ml in the presence of 4% serum. Individual fatty acids tested included saturated fatty acids, monounsaturated fatty acids, and unsaturated fatty acids as shown in Table 7 with varying carbon chain length and location of double bonds along the carbon chain. Cell morphology was observed over a six-day period by brightfield microscopy for characteristic rounding and lipid loading.

[2] = system: Yellowtail myoblasts; assay: Loading of chemically defined fatty acid combinations (Taguchi L-27) into yellowtail myoblasts: cell number, BODIPY, Mitotracker; format: cell-based, Seriola lalandi; settings: fatty acids each at 0, 10, 25 or 50 μg/ml, 4% serum
Procedure: Myoblasts derived from yellowtail as described in Example 4 were evaluated for the ability to uptake fatty acids from a defined chemical composition. Cells were seeded onto tissue culture polystyrene at a density of 6000 cells per cm^2. Cells were cultured in the presence of control media without fatty acids or test media with fatty acids conjugated to BSA in the presence of 4% serum for two or six days. Concentrations were used for each individual fatty acid at 0, 10, 25, or 50 μg/ml. Combinations of fatty acids were determined using a design of experiments using a Taguchi L-27 design (Table 8). […] Cells were fixed, stained and imaged at day two or day six. Cells were treated with NucBlue, BODIPY and Mitotracker for 1.5 hours and live imaging was performed. Cells were then fixed in 4% PFA for 15 minutes and then blocked overnight at 4 degrees Celsius in blocking buffer that contained 5% goat serum, 1% BSA, and 0.2% fish gelatin in PBS. Cells were incubated with Phalloidin for 1 hour at room temperature in blocking buffer (Phalloidin 1:800). Plates were washed twice with PBS prior to imaging. JMP statistical software was used to quantify the effect of each fatty acid on cell number, fatty acid accumulation, and cell health.

[3] = system: Myoblasts or fibroblasts of cow, pork, goat, lamb, or deer; assay: Loading of fatty acid mixtures and single fatty acids into mammalian cells; format: cell-based
Procedure: Myoblasts or fibroblasts of cow, pork, goat, lamb, or deer are isolated from muscle tissue by enzymatic and mechanical/or manual dissociation. Cells are expanded in 2D tissue culture or 3D cell suspension culture.
(§1) Cells are cultured in the presence of control media without fatty acids or test media with individual fatty acids at 1, 5, 10, 15, 25, 50, 75, or 100 μg/ml in the absence or presence of reduced serum. Fatty acids are conjugated to BSA or unconjugated. Individual fatty acids include saturated fatty acids, monounsaturated fatty acids, and poly-unsaturated fatty acids with varying carbon chain lengths and location of double bonds along the carbon chains.

[4] = system: Myoblasts or fibroblasts of chicken, duck, goose, or turkey; assay: Loading of fatty acid mixtures and single fatty acids into cells from avian species; format: cell-based
Procedure: Myoblasts or fibroblasts of chicken, duck, goose, or turkey are isolated from muscle tissue by enzymatic and mechanical/or manual dissociation. Cells are expanded in 2D tissue culture or cell suspension culture.
as §1

[5] = system: Bluefin tuna myoblasts; assay: Effect of nervonic acid on fatty acid toxicity (IncuCyte, CellTiter-Glo ATP assay); format: cell-based, Thunnus orientalis
Procedure: (§2) Concentration effects of fatty acids previously shown to be toxic to aquatic fat-derived and muscle-derived cells (Example 2, Example 5, and Example 6, respectively) were evaluated, alone and in combination with nervonic acid. EPA, DHA, stearic acid, palmitic acid and nervonic acid were tested at concentrations of 0, 10, 25, and 50 ug/mL; each concentration of EPA, DHA, stearic acid and palmitic acid was also tested in combination with 10, 25 and 50 μg/ml of nervonic acid.
(§3) Cell lines were seeded per standard passaging protocols in 4×96 well plates. The cells were allowed to proliferate to approximately 80% confluence, and then transitioned to lipid loading medium containing 0/4% FBS and appropriate lipid compositions, with 6 wells/condition. Cells were monitored for 24-48 hours to evaluate any protective effect with the addition of nervonic acid.
Cells from aquatic species were placed in the IncuCyte and scanned every 6 hours up to 48 hours. Once imaging was completed, cellviability was determined by a commercially available ATP assay (CellTiter-Glo 2.0, Promega) where luminescent signal is proportionate to cell number.

[6] = system: dog kidney cells; assay: as above; format: cell-based, Canis familiaris
Procedure: as §2, §3
(§4) Cells from terrestrial cell lines were imaged in the IncuCyte for a 1-time scan to collect the images and quantify confluence using the IncuCyte software. Following imaging, cell viability was determined by a commercially available ATP assay (CellTiter-Glo 2.0, Promega) where luminescent signal is proportionate to cell number.

[7] = system: rabbit skin fibroblasts; assay: as above; format: cell-based, Oryctolagus cuniculus
Procedure: as §2, §3, §4

[8] = system: silver carp preadipocytes; assay: Loading of single fatty acids into carp preadipocytes; format: cell-based, Hypophthalmichthys molitrix; settings: six days; for lipid loading (brightfield, BODIPY lipid droplets): individual fatty acid 25, 50, 75 or 100 μg/ml; for toxicity (cell confluency, cell number): individual fatty acid up to 100 μg/ml
Procedure: Preadipocytes derived from freshwater carp as described in Example 1 were evaluated for the ability to uptake individual fatty acids. Cells were seeded onto tissue culture polystyrene at a density of 5-7000 cells per cm^2. Cells were cultured in the presence of control media without fatty acids or test media with individual fatty acids at 25, 50, 75, or 100 μg/ml in the absence of serum. Individual fatty acids tested included saturated fatty acids ([…]) and unsaturated fatty acids (linoleic acid). Cell morphology was observed over a six-day period by brightfield microscopy for characteristic rounding and lipid loading. As in Example 1, immunofluorescent staining of cells was performed for cell nuclei by DAPI, cell cytoskeleton by Phalloidin, and lipid droplets by BODIPY.

[9] = 1-100 μg/ml, absence or presence of reduced serum
[10] = added to the growth medium as the only fatty acid
[11] = toxic concentration of 50 μg/mL DHA

## CC/C=C\C/C=C\C/C=C\CCCCCCCC(=O)O [linolenic acid, α-linolenic acid]
[1]; six days
  lipid accumulation (BODIPY): lipid accumulation that was concentration-driven; also recorded: Loading at all concentrations was observed

## CCCCCCCC/C=C\CCCCCCCCCCCCCC(=O)O [nervonic acid, (Z)-Tetracos-15-enoic acid]
[1]; six days
  lipid accumulation (BODIPY): no lipid accumulation at any concentration tested; also recorded: does not load when used individually; also recorded: No lipid loading was observed
[2]
  cell number and health (Mitotracker), viability: key factor in increasing lipid accumulation and cell number
[2]; two or six days
  lipid content / lipid accumulation (BODIPY fluorescence): key factor in increasing lipid accumulation and cell number
[3]; [9]
  lipid uptake and lipid accumulation: causes increased lipid uptake and lipid accumulation
[3]; [10]
  cell proliferation: increases cell proliferation
[4]; [9]
  lipid uptake and lipid accumulation: causes increased lipid uptake and lipid accumulation
[4]; [10]
  cell proliferation: increases cell proliferation
[5]; [11]
  increase in cell number (cell ATP) in the presence of nervonic acid: 70 ×
[6]; [11]
  increase in cell number (cell ATP) in the presence of nervonic acid: 5.5 ×
[7]; [11]
  increase in cell number (cell ATP) in the presence of nervonic acid: 42 ×

## CCCCCC/C=C\CCCCCCCCCC(=O)O [vaccenic acid, (11Z)-11-octadecenoic acid]
[1]; six days
  lipid accumulation (BODIPY): Loading at all concentrations was observed
[1]; six days, listed as Cis-vaccenic acid
  lipid accumulation (BODIPY): taken up very readily

## CCCCCC/C=C\CCCCCCCC(=O)O [palmitoleic acid]
[8]
  lipid loading (brightfield, BODIPY lipid droplets): concentration-dependent lipid accumulation; also recorded: a peak for palmitoleic acid is reached at a lower concentration
  toxicity (cell confluency, cell number): reduced cell confluency indicating potential toxicity
  concentration above which toxicity occurs: above 50 μg/ml
[8]; listed as Palmitoleic acid
  lipid loading (brightfield, BODIPY lipid droplets): effective loading at 50 μg/ml
  toxicity (cell confluency, cell number): reduced cell number; also recorded: Some concentration-related toxicity
[1]; six days
  lipid accumulation (BODIPY): Loading at all concentrations was observed

## CCCCCCCCCCCCCCCC(=O)O [palmitic acid]
[1]; six days
  lipid accumulation (BODIPY): limited accumulation with only small areas of uptake even at the highest concentration of 100 μg/ml

## CC/C=C\C/C=C\C/C=C\C/C=C\C/C=C\C/C=C\CCC(=O)O [DHA, docosahexaenoic acid]
[1]; altered cell morphology and decreased cell number
  concentration above which toxicity occurs: above 25 μg/ml
[1]; individual fatty acid, six days
  toxicity (cell morphology, cell number): some toxicity effects at highest concentrations tested
[5]; 24-48 hours
  toxic concentration: 50 µg/mL
[6]; 24-48 hours
  toxic concentration: 50 µg/mL
[7]; 24-48 hours
  toxic concentration: 50 µg/mL

## CCCCCCCC/C=C\CCCCCCCC(=O)O [oleic acid]
[1]; six days
  lipid accumulation (BODIPY): Loading at all concentrations was observed

## CCCCCCCCCCCCCC(=O)O [myristic acid]
[1]; six days
  lipid accumulation (BODIPY): limited accumulation with only small areas of uptake even at the highest concentration of 100 μg/ml

## CCCCCCCCCCCC(=O)O [lauric acid]
[1]; six days
  lipid accumulation (BODIPY): significant accumulation at all concentrations tested; also recorded: Highest lipid loading

## CCCCCCCCCCCCCCCCCC(=O)O [stearic acid]
[1]; six days
  lipid accumulation (BODIPY): limited accumulation with only small areas of uptake even at the highest concentration of 100 μg/ml

## CCCCC/C=C\C/C=C\CCCCCCCC(=O)O [linoleic acid]
[8]
  lipid loading (brightfield, BODIPY lipid droplets): concentration-dependent lipid accumulation; also recorded: increased loading with concentration
[1]; six days
  lipid accumulation (BODIPY): limited total loading capacity
